Experimental data taken from patent US20220162548A1, “PRODUCING ISOTHIOCYANATES FROM CALLUS SUSPENSION CULTURES” (PERPETUUM CROPSCIENCE BVBA, priority 2019, published 2022).

Test system: NON-GMO Impala F1 Cabbage (Brassica oleracea L. var. capitata) callus cultures
Assay: Elicitation of callus cultures, benzyl isothiocyanate accumulation and callus weight
Assay type: cell-based
Conditions: for Concentration of benzyl isothiocyanate / Dry weight / Fresh weight: four weeks of culture
Protocol: 10 g of calli (fresh weight/vessel) was transferred to the same medium composition in addition to different concentrations of chitosan (200, 400 and 600 mg/L) and salicylic acid (10, 20 and 40 mg/L) as biotic elicitors, in addition to the control treatment without elicitors. After calli was collected, the fresh and dry weights were determined. Dry weight was determined after drying the calli at 45° C. in an oven until a constant weight was obtained. Benzyl Isothiocyanate concentration was also recorded with each treatment. After four weeks of culture, data was documented.
To determine Benzyl Isothiocyanate content, high performance liquid chromatography (HPLC) was performed. The extraction of Benzyl Isothiocyanate was carried out from calli and cells from Erlenmeyer flask culture and single-use ReadyToProcess WAVE Cellbag bioreactor experiments. Samples were homogenized using a glass mortar and pestle (MilliporeSigma, Belgium) containing 70:30 (v:v) MeOH:sterilized water. Extracts were then transferred to glass stoppered Erlenmeyer flasks (DWK Life Sciences) and conditioned in a thermostatic bath (Fisherscientific, Belgium) under constant agitation. For 30 minutes the extraction was carried out at 70° C. and then filtered on Invitrolon PVDF membranes (Polyvinylidene Fluoride) ([…], ThermoFisher Scientific, Belgium) prior to HPLC injection.
Methanolic extracts of the samples were analyzed by HPLC for Benzyl Isothiocyanate concentration using an external standard. HPLC system (Ultimate 3000 Automated System, ThermoFisher Scientific, Belgium) was coupled with UV-Vis detector (UltiMate 3000 Multiple Wavelength Detector, ThermoFisher Scientific, Belgium) and vacuum degasser (UltiMate 3000 SRD-3400 HPLC Degasser, ThermoFisher Scientific, Belgium).
Sample injections of 20 μl were made by an autosampler (UltiMate 3000 WPS-3000 Autosampler, ThermoFisher Scientific, Belgium); the chromatographic separations were performed on C18 Reversed Phase LC columns (Accucore C18 LC Columns, ThermoFisher Scientific, Belgium). Column temperature was maintained at 30° C. and detection wavelength was 253 nm. Optimum efficiency of separation was obtained using methanol (solvent A), and acetonitrile (solvent B) (HPLC grade, Sigma Aldrich, Belgium). The flow rate was 1 ml/minute. The running time for each analysis was 60 minutes, and 10 minutes were required for column cleaning and equilibrium.
The Benzyl Isothiocyanate concentration of the injected samples was calculated as μg/g fresh weight of sample.
Experiments were conducted in a completely randomized design with at least 30 replicates per treatment for the calli experiment and 4 replicates for the cell suspension culture experiments. Data were subjected to statistical analysis by Analysis of Variance (Anova) programme using Duncan's multiple range test as modified by Snedecor and Cochran. Values marked with different letters were considered to be statistically different at p<0.04.

In the case of `O=C(O)c1ccccc1O` [Salicylic acid], the “increase in Benzyl Isothiocyanate accumulation over the control treatment” value (salicylic acid 10 mg/L) is reported as 1.7 times, the “Concentration of benzyl isothiocyanate” value (salicylic acid 10 mg/L) is reported as 2.174 μg/g fresh weight and the Dry weight (salicylic acid 10 mg/L) is reported as 4.807 g. The Fresh weight (salicylic acid 10 mg/L) was 5.985 g, the “Concentration of benzyl isothiocyanate” value (salicylic acid 20 mg/L) was 2.039 μg/g fresh weight and the Dry weight (salicylic acid 20 mg/L) was 4.424 g. The Fresh weight (salicylic acid 20 mg/L) was 4.981 g, the “Concentration of benzyl isothiocyanate” value (salicylic acid 40 mg/L) was 1.956 μg/g fresh weight and the Dry weight (salicylic acid 40 mg/L) was 5.107 g. The Fresh weight (salicylic acid 40 mg/L) was 5.509 g.
